Paper PMC3653948, “PDZ Domain-Mediated Interactions of G Protein-Coupled Receptors with Postsynaptic Density Protein 95: Quantitative Characterization of Interactions” (PLoS ONE, 2013)
“Also recorded” adds a separate entry of the source. Where two headings read alike, the source gives them in different places. Peptide text beside a SMILES is read from it.

How the values were obtained:
[1] = target: T1, PSD-95 PDZ1 (Homo sapiens, UniProt P78352); test: FP competition assay, PSD-95 PDZ1 (probe Cy5-KIF1Bα); assay type: binding
T1 construct: PSD-95 PDZ1 (aa 61–151); made in house; host or cells: E. coli One Shot BL21 Star (DE3)
Protocol: (§4) FP measurements were performed in black, flat bottom 384-well NBS microplates (Corning) on a Synergy H4 microplatereader (BioTek Instruments) equipped with a 620/40 nm excitation filter, a 680/30 nm emission filter, and a 660 nm dichroic mirror. Polarization values were corrected with blank samples and samples with fluorescent probe alone. At least 10 data points were measured for each curve, and each data point was measured in triplicate. […] All FP measurements were performed in a buffer containing 10 mM HEPES pH 7.4, 150 mM NaCl, and 1% BSA and incubated at least 15 min at room temperature before reading. The signal was stable for more than an hour, showing that the reaction was at equilibrium.
(§5) For the competition binding curves, probe was mixed with a constant concentration of PDZ protein corresponding to the K d and a twofold dilution series of unlabeled peptide in a total volume of 30 µl. The baseline was determined using a sample containing only probe. The IC50 was determined by fitting to a 1∶1 binding model: Y = Ymax − Ymax × X/(X+IC50). The K i was calculated from the IC50 and from the K d for the interaction between the PDZ protein and the probe as described previously [38].

[2] = target: T2, PSD-95 PDZ2 (Homo sapiens, UniProt P78352); test: FP competition assay, PSD-95 PDZ2 (probe Cy5-GluN2B); assay type: binding; settings: read-out: K i PDZ2
T2 construct: PDZ2 (aa 155–249); made in house; host or cells: E. coli One Shot BL21 Star (DE3)
Protocol: as §4, §5

[3] = target: T3, PSD-95 PDZ3 (Homo sapiens, UniProt P78352); test: FP competition assay, PSD-95 PDZ3 (probe Cy5-CRIPT); assay type: binding
T3 construct: made in house; host or cells: E. coli One Shot BL21 Star (DE3)
Protocol: (§1) We used a competition set-up, where a constant concentration of isolated PSD-95 PDZ domain and a labeled reference ligand was titrated with unlabeled peptides from the GPCR C-tail library, typically within a 1–512 µM concentration range, and the resulting curves were fitted to obtain the IC50, which was used to calculate the K i (Figure 1). Three Cy5-labeled peptides with well-documented interactions with PSD-95 were used as reference ligands for the competition assay: Cy5-KIF1Bα was used for PDZ1 [20], Cy5-GluN2B (formerly known as NR2B) was used for PDZ2 and PDZ1-2 [21], and Cy5-CRIPT was used for PDZ3 [22] (Table S1). Competition with unlabeled versions of the reference ligands was used to validate the FP assay by comparison with the literature (Table S2).
(§2) FP measurements were performed in black, flat bottom 384-well NBS microplates (Corning) on a Synergy H4 microplatereader (BioTek Instruments) equipped with a 620/40 nm excitation filter, a 680/30 nm emission filter, and a 660 nm dichroic mirror. Polarization values were corrected with blank samples and samples with fluorescent probe alone. At least 10 data points were measured for each curve, and each data point was measured in triplicate. 25 nM Cy5-labeled probe was used for each assay: Cy5-KIF1Bα for PDZ1, Cy5-GluN2B for PDZ2 and PDZ1-2, and Cy5-CRIPT for PDZ3. All FP measurements were performed in a buffer containing 10 mM HEPES pH 7.4, 150 mM NaCl, and 1% BSA and incubated at least 15 min at room temperature before reading. The signal was stable for more than an hour, showing that the reaction was at equilibrium.
Saturation binding curves were used to determine the functionality of the PDZ domains by comparison with literature values and to calculate K i values from competition curves. Saturation binding curves were performed by mixing probe with a twofold dilution series of PDZ protein in a total volume of 30 µl. The K d was determined by fitting to a 1∶1 binding model: Y = Ymax × X/(X+K d).
(§3) For the competition binding curves, probe was mixed with a constant concentration of PDZ protein corresponding to the K d and a twofold dilution series of unlabeled peptide in a total volume of 30 µl. The baseline was determined using a sample containing only probe. The IC50 was determined by fitting to a 1∶1 binding model: Y = Ymax − Ymax × X/(X+IC50). The K i was calculated from the IC50 and from the K d for the interaction between the PDZ protein and the probe as described previously.

[4] = tested on: PSD-95; test: FP competition assay, PSD-95 PDZ domains overall (strongest binding domain / non-binders); settings: FP competition with the isolated PDZ domains, peptide typically 1–512 µM
Protocol: as §1, §2, §3

[5] = 25 nM Cy5-KIF1Bα, 10 mM HEPES pH 7.4, 150 mM NaCl, 1% BSA, room temperature, at least 15 min, Ki ± fitting error, read-out: K i PDZ1

Row | Compound | Interaction with PSD-95 using fluorescence polarization [4] | also measured
1 | CC(C)[C@H](NC(=O)[C@H](CS)NC(=O)[C@H](CO)NC(=O)[C@@H](NC(=O)[C@H](CCCCN)NC(=O)[C@H](CCC(=O)O)NC(=O)[C@H](CC(N)=O)NC(=O)[C@@H](NC(=O)CNC(=O)[C@H](CC(=O)O)NC(=O)[C@H](CCCNC(=N)N)NC(=O)[C@H](CC(=O)O)NC(=O)[C@H](CC(=O)O)NC(=O)[C@@H](N)Cc1ccc(O)cc1)C(C)C)C(C)C)C(=O)O [5-HTR2A] (H-YDDRDGVNEKVSCV-OH) |  | Ki [1, 5]: 160 ± 4 µM; Ki [2]: 46 ± 0.2 µM; Ki ([3]; read-out: K i PDZ3): > 1000 µM
2 | CC(C)C[C@H](NC(=O)[C@@H](NC(=O)[C@@H](NC(=O)[C@H](CO)NC(=O)[C@@H](NC(=O)[C@H](Cc1c[nH]cn1)NC(=O)CNC(=O)[C@H](CO)NC(=O)[C@H](CO)NC(=O)[C@H](CO)NC(=O)[C@H](CCCNC(=N)N)NC(=O)[C@H](CC(=O)O)NC(=O)[C@H](CC(=O)O)NC(=O)[C@@H](N)Cc1ccc(O)cc1)[C@@H](C)O)[C@@H](C)O)[C@@H](C)O)C(=O)O [CXCR2] (H-YDDRSSSGHTSTTL-OH) |  | Ki ([1]; 25 nM Cy5-KIF1Bα, 10 mM HEPES pH 7.4, 150 mM NaCl, 1% BSA, room temperature, mean Ki ± SEM from two or more independent experiments, read-out: K i PDZ1): 280 ± 25 µM; Ki [2]: 370 ± 53 µM; Ki ([3]; read-out: K i PDZ3): 370 ± 39 µM
3 | CC[C@H](C)[C@H](NC(=O)[C@H](CO)NC(=O)[C@H](CO)NC(=O)[C@H](CC(C)C)NC(=O)[C@H](CCCCN)NC(=O)[C@H](CCC(=O)O)NC(=O)[C@@H](N)Cc1ccc(O)cc1)C(=O)N[C@@H](CCC(=O)O)C(=O)N[C@@H](CO)C(=O)N[C@@H](CC(=O)O)C(=O)N[C@H](C(=O)O)C(C)C [GluN2B, reference compound] (H-YEKLSSIESDV-OH) |  | Ki ([1]; unlabeled reference ligand vs Cy5-KIF1Bα, mean Ki ± SEM from two or more independent experiments, read-out: Ki PDZ1 Result (Table S2)): 29 ± 2.5 µM; Ki ([3]; FP competition, unlabeled reference ligand vs Cy5-CRIPT, Ki ± fitting error, read-out: Ki PDZ3 Result (Table S2)): > 1000 µM
4 | CC[C@H](C)[C@H](NC(=O)[C@H](CO)NC(=O)[C@@H](NC(=O)[C@H](CCC(N)=O)NC(=O)[C@H](CC(C)C)NC(=O)[C@H](CC(=O)O)NC(=O)CNC(=O)[C@H](CC(N)=O)NC(=O)[C@H](CC(C)C)NC(=O)[C@H](CC(C)C)NC(=O)[C@H](CCCNC(=N)N)NC(=O)[C@H](CC(=O)O)NC(=O)[C@H](CC(=O)O)NC(=O)[C@@H](N)Cc1ccc(O)cc1)[C@@H](C)O)C(=O)O [SSTR2A] (H-YDDRLLNGDLQTSI-OH) |  | Ki [1, 5]: 620 ± 106 µM; Ki [2]: 230 ± 2 µM; Ki ([3]; read-out: K i PDZ3): > 1000 µM
5 | CC[C@H](C)[C@H](NC(=O)[C@H](CCCNC(=N)N)NC(=O)[C@H](CCSC)NC(=O)[C@@H](NC(=O)[C@H](CO)NC(=O)[C@H](CO)NC(=O)[C@H](CCCCN)NC(=O)[C@H](CCCNC(=N)N)NC(=O)[C@H](CC(=O)O)NC(=O)[C@@H](N)CC(=O)O)[C@@H](C)O)C(=O)N[C@@H](CO)C(=O)N[C@@H](Cc1ccc(O)cc1)C(=O)N[C@@H](CC(C)C)C(=O)O [SSTR3] (H-DDRKSSTMRISYL-OH) |  | Ki [1, 5]: 610 ± 125 µM; Ki ([1]; receptors binding to PDZ1 but not to PDZ2, read-out: K i PDZ1): > 600 µM; Ki [2]: > 1000 µM; Ki ([3]; read-out: K i PDZ3): 280 ± 5 µM
6 | CC(C)C[C@H](NC(=O)[C@H](CC(C)C)NC(=O)[C@H](CO)NC(=O)[C@H](CC(=O)O)NC(=O)[C@H](CC(N)=O)NC(=O)[C@@H](NC(=O)[C@H](CO)NC(=O)[C@H](CS)NC(=O)[C@H](CC(N)=O)NC(=O)[C@H](CCCNC(=N)N)NC(=O)[C@H](CCCNC(=N)N)NC(=O)[C@H](CC(=O)O)NC(=O)[C@H](CC(=O)O)NC(=O)[C@@H](N)Cc1ccc(O)cc1)[C@@H](C)O)C(=O)O [β2AR] (H-YDDRRNCSTNDSLL-OH) |  | Ki [1, 5]: > 1000 µM; Ki ([3]; read-out: K i PDZ3): > 1000 µM
7 | DRTNHQVRSL [μOR-1A, synthetic peptide, C-terminal 10 aa of human µOR-1A with N-terminal YDDR/DDR linker] | not to interact | 
8 | EFKQNGDTSL [P2Y1, synthetic peptide, C-terminal 10 aa of human P2Y1 with N-terminal YDDR/DDR linker] | not to interact | 
9 | EVVDSTTSSL [mGlu2, synthetic peptide, C-terminal 10 aa of human mGlu2 with N-terminal YDDR/DDR linker] | not to interact | 
10 | GHPLMDSTL [LPA2, synthetic C-tail peptide of human LPA2 with N-terminal YDDR/DDR linker] | not to interact | 
11 | GVQPALGVGL [A2B, synthetic peptide, C-terminal 10 aa of human adenosine A2B receptor with N-terminal YDDR/DDR linker] | not to interact | 
12 | NDPESLESCF [5-HTR4(a), synthetic peptide, C-terminal 10 aa of human 5-HTR4(a) with N-terminal YDDR/DDR linker] | not to interact | 
13 | QRERRQKSDW [μOR-1B2, synthetic peptide, C-terminal 10 aa of human µOR-1B2 with N-terminal YDDR/DDR linker] | not to interact | 
14 | QSPFPFPGRV [μOR-1B5, synthetic peptide, C-terminal 10 aa of human µOR-1B5 with N-terminal YDDR/DDR linker] | not to interact | 
15 | RDIDGMNKPV [κOR, synthetic peptide, C-terminal 10 aa of human κ opioid receptor (no PDZ motif) with N-terminal YDDR/DDR linker] | not to interact; also recorded: no interaction | 
16 | RDYTQSSSSL [mGlu5(b), synthetic peptide, C-terminal 10 aa of human mGlu5(b) with N-terminal YDDR/DDR linker] | not to interact | 
17 | SDGPGGGAAA [δOR, synthetic peptide, C-terminal 10 aa of human δ opioid receptor with N-terminal YDDR/DDR linker] | not to interact | 
18 | TGEHEVSTGL [CCR5 Mouse, synthetic peptide, C-terminal 10 aa of mouse CCR5 with N-terminal YDDR/DDR linker] | not to interact | 
19 | TGEQEISVGL [CCR5 Human, synthetic peptide, C-terminal 10 aa of human CCR5 with N-terminal YDDR/DDR linker] | not to interact | 

The next lines start with results.

Row | Interaction with PSD-95 using fluorescence polarization [4] | Compound | also measured
20 | not to interact | ANGLMQTSKL [SSTR5, synthetic peptide, C-terminal 10 aa of human SSTR5 with N-terminal YDDR/DDR linker] | 
21 | not to interact | ESESSSFHSS [CXCR4, synthetic peptide, C-terminal 10 aa of human CXCR4 with N-terminal YDDR/DDR linker] | 
22 | not to interact | ETSEASYSGL [CXCR3, synthetic peptide, C-terminal 10 aa of human CXCR3 with N-terminal YDDR/DDR linker] | 
23 | not to interact | SENATSLTTF [CXCR5, synthetic peptide, C-terminal 10 aa of human CXCR5 with N-terminal YDDR/DDR linker] | 
24 | not to interact | SSSVNVSSNL [CXCR1, synthetic peptide, C-terminal 10 aa of human CXCR1 with N-terminal YDDR/DDR linker] | 
